Tests used:
Assay type in all cases: in vivo
[1] = tested on: Diabrotica balteata; experiment: Diabrotica balteata spray test; settings: after 7 days, larvae on wheat seeds; for pest or weed control at 160 µg/disc, 500 g/ha / pest or weed control at 80 µg/disc, 250 g/ha: Diabrotica balteata, in Triticum aestivum, 168 h, read-out: efficacy (seedlings grown up); for pest or weed control at 80 µg/disc, 250 g/ha: 80 μg/well (=250 g/ha)
Procedure: Diabrotica balteata—Spray Test [table] To produce a suitable preparation of active compound, 1 part by weight of active compound is mixed with the stated amount of solvent, and the concentrate is diluted with water, containing an emulsifier concentration of 1000 ppm, to the desired concentration. Further test concentrations are prepared by dilution with emulsifier containing water. Soaked wheat seeds (Triticum aestivum) are placed in a multiple well plate filled with agar and some water and are incubated for 1 day to germinate (5 seeds per well). The germinated wheat seeds are sprayed with a test solution containing the desired concentration of the active ingredient. Afterwards each unit is infected with 10-20 larvae of the banded cucumber beetle (Diabrotica balteata). After 7 days efficacy in % is determined. 100% means all the seedlings have grown up like in the untreated, uninfected control; 0% means none of the seedlings have grown.

[2] = tested on: Boophilus microplus; experiment: Boophilus microplus injection test; settings: 20 μg/animal injected into the abdomen, adult engorged female ticks, egg deposition after 7 days; for pest or weed control at 0.02 mg: Rhipicephalus microplus, 168 h, read-out: efficacy (infertile eggs)
Procedure: Boophilus Microplus—Injection Test Solvent: dimethyl sulfoxide To produce a suitable preparation of active compound, 10 mg of active compound are dissolved in 0.5 ml solvent, and the concentrate is diluted with solvent to the desired concentration. Five adult engorged female ticks (Boophilus microplus) are injected with 1 μl compound solution into the abdomen. The ticks are transferred into replica plates and incubated in a climate chamber. After 7 days egg deposition of fertile eggs is monitored. Eggs where fertility is not visible are stored in a climate chamber till hatching after about 42 days. An efficacy of 100% means all eggs are infertile; 0% means all eggs are fertile.

[3] = tested on: Spodoptera frugiperda; experiment: Spodoptera frugiperda spray test; settings: 168 h, after 7 days, larvae on maize leaf sections
Procedure: Spodoptera frugiperda—Spray Test
To produce a suitable preparation of active compound, 1 part by weight of active compound is mixed with the stated amount of solvents and is diluted with water, containing an emulsifier concentration of 1000 ppm, to the desired concentration. Further test concentrations are prepared by dilution with emulsifier containing water.
Maize (Zea mays) leaf sections are sprayed with a preparation of the active ingredient of the desired concentration. Once dry, the leaf sections are infested with fall armyworm larvae (Spodoptera frugiperda).
After 7 days mortality in % is determined. 100% means all caterpillars have been killed and 0% means none of the caterpillars have been killed.

[4] = tested on: Nezara viridula; experiment: Nezara viridula spray test; settings: 96 h, after 4 days, larvae on barley plants
Procedure: Nezara viridula—Spray Test
To produce a suitable preparation of active compound, 1 part by weight of active compound is mixed with the stated amount of solvent, and the concentrate is diluted with water, containing an emulsifier concentration of 1000 ppm, to the desired concentration. Further test concentrations are prepared by dilution with emulsifier containing water.
Barley plants (Hordeum vulgare) infested with larvae of the southern green stink bug (Nezara viridula) are sprayed with a test solution containing the desired concentration of the active ingredient.
After 4 days mortality in % is determined. 100% means all the stink bugs have been killed: 0% means none of the stink bugs have been killed.

[5] = tested on: Ctenocephalides felis; experiment: Ctenocephalides felis oral test; settings: 48 h, 100 ppm in cattle blood, after 2 days, adult unfed cat fleas
Procedure: Ctenocephalides Felis—Oral Test
Solvent: dimethyl sulfoxide
To produce a suitable preparation of active compound, 10 mg of active compound are dissolved in 0.5 ml solvent, and the concentrate is diluted with cattle blood to the desired concentration.
Approximately 20 adult unfed cat fleas (Ctenocephalides felis) are placed in flea chambers. The blood chamber, sealed with parafilm on the bottom, are filled with cattle blood supplied with compound solution and placed on the gauze covered top of the flea chamber, so that the fleas are able to suck the blood. The blood chamber is heated to 37° C. whereas the flea chamber is kept at room temperature.
After 2 days mortality in % is determined. 100% means all the fleas have been killed; 0% means none of the fleas have been killed.

C[C@H](NC(=O)c1cc(Cl)cc(C(F)(F)F)c1)c1ncnn1C1CCS(=O)(=O)C1 (single isomer, unassigned) [Example I-025]
efficacy (seedlings grown up) ([1]; 160 μg/well (=500 g/ha)): 80% | efficacy (infertile eggs) [2]: 100%

CC(c1ncnn1-c1cnc2ccccc2n1)N(CC1CC1)C(=O)c1cc(Cl)cc(C(F)(F)F)c1 (stereo not drawn) [Example I-004]
pest or weed control at 160 µg/disc, 500 g/ha ([1]; 160 μg/well (=500 g/ha)): 100%

C[C@H](NC(=O)c1cc(Cl)cc(C(F)(F)F)c1)c1ncnn1-c1nnc(C(F)(F)F)s1 [Example I-017]
pest or weed control at 0.02 mg [2]: 90%

C[C@H](NC(=O)c1cc(Cl)cc(C(F)(F)F)c1)c1ncnn1-c1nc(C(F)F)c(Cl)s1 [Example I-022]
mortality at 500 g/ha [3]: 83% | pest or weed control at 80 µg/disc, 250 g/ha [1]: 100% | pest or weed control at 160 µg/disc, 500 g/ha ([1]; 160 μg/well (=500 g/ha)): 100% | pest or weed control at 0.02 mg [2]: 100%

C[C@H](NC(=O)c1cc(Cl)cc(C(F)(F)F)c1)c1ncnn1-c1nnc(-c2ccc(F)cc2)s1 [Example I-023]
mortality at 100 g/ha ([4]; 100 g/ha): 100%

C[C@H](NC(=O)c1cc(Cl)cc(C(F)(F)F)c1)c1ncnn1-c1ccc(OC(F)F)cn1 [Example I-029]
mortality at 100 g/ha [3]: 100% | mortality at 500 g/ha [3]: 100% | pest or weed control at 80 µg/disc, 250 g/ha [1]: 100% | pest or weed control at 160 µg/disc, 500 g/ha ([1]; 160 μg/well (=500 g/ha)): 100% | mortality at 500 g/ha [4]: 100%

COC(=O)c1ccc(-n2ncnc2[C@H](C)NC(=O)c2cc(Cl)cc(C(F)(F)F)c2)nc1 [Example I-031]
pest or weed control at 160 µg/disc, 500 g/ha ([1]; 160 μg/well (=500 g/ha)): 100% | pest or weed control at 0.02 mg [2]: 100%

C[C@H](NC(=O)c1cc(Cl)cc(C(F)(F)F)c1)c1ncnn1-c1nc(-c2ccccc2F)cs1 [Example I-043]
pest or weed control at 160 µg/disc, 500 g/ha ([1]; 160 μg/well (=500 g/ha)): 100%

C[C@H](NC(=O)c1cc(Cl)cc(C(F)(F)F)c1)c1ncnn1-c1cccc(C#N)n1 [Example I-055]
pest or weed control at 0.02 mg [2]: 100%

C[C@H](NC(=O)c1cc(F)cc(C(F)(F)F)c1)c1ncnn1-c1nc2ccccc2o1 [Example I-058]
mortality at 100 ppm [5]: 100% | pest or weed control at 0.02 mg [2]: 100%

C[C@H](NC(=O)c1cc(Cl)cc(C(F)(F)F)c1)c1ncnn1-c1cccc(OCC(F)(F)F)n1 [Example I-059]
pest or weed control at 160 µg/disc, 500 g/ha ([1]; 160 μg/well (=500 g/ha)): 100%

C[C@H](NC(=O)c1cc(Cl)cc(C(F)(F)F)c1)c1ncnn1-c1ccc(OCC(F)(F)C(F)(F)F)cn1 [Example I-060]
mortality at 100 g/ha [3]: 100% | mortality at 500 g/ha [3]: 100% | pest or weed control at 80 µg/disc, 250 g/ha [1]: 80% | mortality at 100 ppm [5]: 100%

C[C@H](NC(=O)c1cc(Cl)cc(C(F)(F)F)c1)c1ncnn1-c1cccc(S(C)(=O)=O)n1 [Example I-064]
pest or weed control at 0.02 mg [2]: 80%

CC[C@H](NC(=O)c1cc(C(F)(F)F)cc(C(F)(F)F)c1)c1ncnn1-c1ccc(C#N)cn1 [Example I-068]
mortality at 100 g/ha [3]: 100% | mortality at 500 g/ha [3]: 100% | pest or weed control at 80 µg/disc, 250 g/ha [1]: 100% | pest or weed control at 160 µg/disc, 500 g/ha ([1]; 160 μg/well (=500 g/ha)): 100% | pest or weed control at 0.02 mg [2]: 100%

CC(NC(=O)c1cc(Cl)cc(C(F)(F)F)c1)c1ncnn1C1=NCCS1 (stereo not drawn) [Example I-075]
pest or weed control at 80 µg/disc, 250 g/ha [1]: 100% | pest or weed control at 160 µg/disc, 500 g/ha ([1]; 160 μg/well (=500 g/ha)): 100% | mortality at 100 ppm [5]: 100%

C[C@H](NC(=O)c1cc(Cl)cc(C(F)(F)F)c1)c1ncnn1-c1nc(C(F)(F)F)cs1 [Example I-084]
pest or weed control at 80 µg/disc, 250 g/ha [1]: 100% | pest or weed control at 160 µg/disc, 500 g/ha ([1]; 160 μg/well (=500 g/ha)): 100%

C[C@H](NC(=O)c1cc(Cl)cc(C(F)(F)F)c1)c1ncnn1-c1ccc(-n2ccnc2)cn1 [Example I-086]
mortality at 500 g/ha [3]: 83% | pest or weed control at 80 µg/disc, 250 g/ha [1]: 100% | mortality at 100 ppm [5]: 100%

C[C@H](NC(=O)c1cc(Cl)cc(C(F)(F)F)c1)c1ncnn1-c1ccc(-n2cncn2)cn1 [Example I-087]
mortality at 100 g/ha [3]: 100% | mortality at 500 g/ha [3]: 100%

C[C@H](NC(=O)c1cc(Cl)cc(C(F)(F)F)c1)c1ncnn1-c1ncc(Cl)s1 [Example I-090]
mortality at 100 g/ha [3]: 100% | mortality at 500 g/ha [3]: 100% | pest or weed control at 80 µg/disc, 250 g/ha [1]: 100% | pest or weed control at 160 µg/disc, 500 g/ha ([1]; 160 μg/well (=500 g/ha)): 100% | mortality at 100 ppm [5]: 100% | mortality at 500 g/ha [4]: 100%

COc1cc(C(=O)N[C@@H](C)c2ncnn2-c2ccc(C#N)cn2)cc(C(F)(F)F)c1 [Example I-092]
mortality at 100 g/ha [3]: 100% | mortality at 500 g/ha [3]: 100% | pest or weed control at 80 µg/disc, 250 g/ha [1]: 100% | pest or weed control at 160 µg/disc, 500 g/ha ([1]; 160 μg/well (=500 g/ha)): 100% | mortality at 100 ppm [5]: 100% | mortality at 500 g/ha [4]: 90%

COc1cc(C(=O)N[C@@H](C)c2ncnn2-c2nccs2)cc(C(F)(F)F)c1 [Example I-093]
mortality at 500 g/ha [3]: 100% | pest or weed control at 80 µg/disc, 250 g/ha [1]: 100% | pest or weed control at 160 µg/disc, 500 g/ha ([1]; 160 μg/well (=500 g/ha)): 100% | mortality at 100 ppm [5]: 100% | mortality at 500 g/ha [4]: 100%

CC[C@H](NC(=O)c1cc(Cl)cc(OC(F)(F)F)c1)c1ncnn1-c1ccc(NC(C)=O)cn1 [Example I-095]
mortality at 100 ppm [5]: 100%

CC[C@H](NC(=O)c1cc(Cl)cc(OC(F)(F)F)c1)c1ncnn1-c1ccc(NC(=O)C2CC2)cn1 [Example I-096]
pest or weed control at 80 µg/disc, 250 g/ha [1]: 100% | pest or weed control at 160 µg/disc, 500 g/ha ([1]; 160 μg/well (=500 g/ha)): 100% | mortality at 100 ppm [5]: 100%

C[C@H](NC(=O)c1cc(Cl)cc(C(F)(F)F)c1)c1ncnn1-c1ccc(NC(=S)CC2CC2)cn1 [Example I-097]
mortality at 500 g/ha [3]: 100% | pest or weed control at 80 µg/disc, 250 g/ha [1]: 100% | pest or weed control at 160 µg/disc, 500 g/ha ([1]; 160 μg/well (=500 g/ha)): 100% | mortality at 100 ppm [5]: 100%

CC(C)C(=S)Nc1ccc(-n2ncnc2[C@H](C)NC(=O)c2cc(Cl)cc(C(F)(F)F)c2)nc1 [Example I-099]
mortality at 500 g/ha [3]: 100% | pest or weed control at 80 µg/disc, 250 g/ha [1]: 100% | pest or weed control at 160 µg/disc, 500 g/ha ([1]; 160 μg/well (=500 g/ha)): 100% | mortality at 100 ppm [5]: 100%

COc1cc(C(=O)N[C@@H](C)c2ncnn2-c2ncc(F)cc2F)cc(C(F)(F)F)c1 [Example I-102]
pest or weed control at 80 µg/disc, 250 g/ha [1]: 100% | mortality at 500 g/ha [4]: 100%

C[C@H](NC(=O)c1cc(Cl)cc(Cl)c1)c1ncnn1-c1nccs1 [Example I-108]
mortality at 500 g/ha [3]: 83% | pest or weed control at 160 µg/disc, 500 g/ha ([1]; 160 μg/well (=500 g/ha)): 100%

C[C@H](NC(=O)c1cc(Cl)cc(OC(F)(F)F)c1)c1ncnn1-c1ccc(NC(=O)C2(Cl)CC2)cn1 [Example I-113]
mortality at 100 g/ha [3]: 80% | mortality at 500 g/ha [3]: 100% | pest or weed control at 160 µg/disc, 500 g/ha ([1]; 160 μg/well (=500 g/ha)): 80% | mortality at 500 g/ha [4]: 100%

From patent publication US12171229B2, “Heteroaryl-triazole and heteroaryl-tetrazole compounds as pesticides” (BAYER AKTIENGESELLSCHAFT, priority 2018, dated 2024)
